Assay results from article PMC5940854, “Nitrothiophene carboxamides, a novel narrow spectrum antibacterial series: Mechanism of action and Efficacy” (Scientific Reports, 2018).
In brackets after ≈: the same amount, converted by molar mass. Like-named read-outs stand apart in the source and are kept apart here.

Tests used:
[1] = system: E. coli ∆tolC JW5503-1; assay: MIC, E. coli ∆tolC; type: cell-based; conditions: for MIC tolC: E. coli ∆tolC; for MIC: Escherichia coli, read-out: MIC tolC
Protocol: (§1) The inoculum used for all the experiments is derived from a single seed lot that is maintained as glycerol stocks at −80 °C and are sub cultured on LB plate for isolated colonies. Single colony of each strain is grown in M9 medium. All test compound stocks and dilutions are prepared in DMSO. Serial two-fold dilutions of compounds are prepared separately, with the concentrations ranging from 2 mg/mL to 0.015 mg/mL. To 150 µl (3–7 × 10^5 CFU/ml) of bacterial culture in 96 well microtitre plates, 3 μL compound from each of the dilutions is added to respective wells to obtain final concentrations ranging from 40 µg/mL to 0.3 µg/mL of the test compounds. Media control, culture control and appropriate reference drug controls are included. […] Growth is monitored by checking absorbance at 600 nm (A600). […] The samples from MIC and above concentrations are plated for MBC (Minimum Bactericidal Concentration). The samples are diluted 1:10 and plated on LB agar plates. […] The killing kinetics is determined by enumerating survivors at various time points following compound exposure. E. coli cells (~10^7 CFU/ml; A600 of 0.1) are treated with various concentrations (40 µg/mL to 0.3 µg/mL) of compounds in a 96-well microtitre plate. At various time intervals (0 to 8 h), 30 μl volumes of treated cultures are serially diluted and plated on LB agar plates. […] Data is expressed as the log10 CFU for each drug treatment.

[2] = system: E. coli ∆acrB JW0451-2; assay: MIC, E. coli ∆acrB; type: cell-based; conditions: for MIC acrB: E. coli ∆acrB; for MIC: Escherichia coli, read-out: MIC acrB
Protocol: as §1

[3] = system: wild-type E. coli CGSC#7636 (BW25113); assay: MIC, wild-type E. coli; type: cell-based; conditions: for MIC WT: E. coli WT BW25113; for MIC: Escherichia coli
Protocol: as §1

[4] = system: E. coli ∆nfsB; assay: microbe, parasite or virus in culture; type: cell-based; conditions: Escherichia coli, read-out: MIC ∆nfsB
Protocol: (§2) To assess the biological relevance of the interacting protein and establish the link between nitroreductases to the antibacterial activity of NTC compounds, single (ΔnfsA or ΔnfsB) and double knockouts (ΔnfsA & ΔnfsB) of nitroreductases were generated by phage transduction using strains from the Keio collection.
as §1
The wild-type E. coli strain BW25113 and the entire Keio collection of knockouts[22] is maintained as glycerol stocks at −80 °C in 96-well deep well blocks. […] These are sub cultured in 150 µl of LB broth (Kanamycin 50 ug/ml, except for the wild-type strain) in 96 well microtiter plates and then adapted into M9 medium with 0.4% glucose. […] Cultures of single gene knockouts that show an altered MIC as compared to that of the wild type are scored as ‘Hits’.

[5] = system: E. coli ∆nfsA + ∆nfsB; assay: microbe, parasite or virus in culture; type: cell-based
Protocol: as §2, §1

[6] = system: E. coli ∆nfsA; assay: microbe, parasite or virus in culture; type: cell-based; conditions: Escherichia coli, read-out: MIC ∆nfsA
Protocol: as §2, §1

[7] = molecular target: T1, NfsA (Escherichia coli, UniProt P17117); assay: Nitroreductase activity assay, NfsA; type: biochemical, E. coli
T1 construct: His-tag; made in house; host or cells: E. coli BL21(DE3), pET28a (pET-nfsA)
T1 sequence (P17117 whole entry): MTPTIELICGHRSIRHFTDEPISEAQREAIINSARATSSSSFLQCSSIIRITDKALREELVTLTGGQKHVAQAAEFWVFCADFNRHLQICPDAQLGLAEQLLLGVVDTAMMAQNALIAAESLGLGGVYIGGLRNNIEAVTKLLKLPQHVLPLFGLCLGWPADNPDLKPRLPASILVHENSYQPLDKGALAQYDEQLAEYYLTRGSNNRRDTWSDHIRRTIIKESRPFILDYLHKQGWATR
Protocol: (§3) Enzyme reducing each of the substrates are measured by monitoring the concomitant oxidation of NADPH by NfsA and NADH by NfsB in a fluorescence based assay. The reduction in fluorescence due to the NADH oxidation (excitation 350 nm, emission 460 nm) and NADPH oxidation (excitation 340 nm, emission 485 nm) is recorded using a TECAN Infinite M200Pro spectrophotometer, in half area solid black microtiter plates. This change in fluorescence directly corelates to the reduction of the nitro-compounds in the reaction. The NfsA assays is performed by initiating the reactions with 40 μM NADPH and 10 nM NfsA in 50 mM Tris-HCl (pH 7.4), 5 mM EDTA against 20 μM substrate (5 μl of compounds/substrate dissolved in 100% DMSO) in a total reaction volume of 100 μl at 25 °C. Similarly, the NfsB assay is also performed by initiating the reactions with 40 μM NADH and 70 nM NfsB in 50 mM Tris-HCl (pH 7.4), 5 mM EDTA against 20 μM substrate in a total reaction volume of 100 μl. […] All reactions are performed in replicates of two or more and the fluorescence measurements are made at 10 second intervals for 5–10 minutes.
(§4) Low solubility of the compounds/substrates under the NfsA and NfsB assay conditions precluded determination of their Km. […] The relative fluorescence units (RFU) obtained due to NADPH (excitation 340 nm, emission 485 nm) or NADH (excitation 350 nm, emission 460 nm) oxidation of the first 90 sec reaction is used to compute the slopes using linear regression analysis on GraphPad Prism. Appropriate blank reactions are included to account for background fluorescence/quenching from each of the components such as DMSO, the compound itself and auto-oxidation of NADPH or NADH. Activity of NfsB with a known substrate such as nitrofurantoin is used as a benchmark to plot the relative activities with all the test compounds.

[8] = molecular target: T2, NfsB (Escherichia coli, UniProt P38489); assay: Nitroreductase activity assay, NfsB; type: biochemical, E. coli
T2 construct: His-tag; made in house; host or cells: E. coli BL21(DE3), pET28a (pET-nfsB)
T2 sequence (P38489 whole entry): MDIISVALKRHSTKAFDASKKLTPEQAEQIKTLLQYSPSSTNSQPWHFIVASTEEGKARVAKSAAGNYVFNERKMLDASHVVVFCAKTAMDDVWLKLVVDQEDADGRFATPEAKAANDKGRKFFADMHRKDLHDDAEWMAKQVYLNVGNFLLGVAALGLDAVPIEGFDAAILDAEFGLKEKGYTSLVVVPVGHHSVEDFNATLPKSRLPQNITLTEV
Protocol: as §3, §4

[9] = BW25113, E. coli WT BW25113, read-out: MIC WT

| Molecule | MIC [1] [µg/mL] | MIC [2] [µg/mL] | MIC [3, 9] [µg/mL] | other results |
| --- | --- | --- | --- | --- |
| 5-Nitro-N-(4-(6-(trifluoromethyl)pyridin-3-yl)thiazol-2-yl)thiophene-2-carboxamide [compound 17] | – | – | – | MIC tolC [1]: 10 µg/mL; MIC acrB [2]: 10 µg/mL; MIC WT [3]: > 40 µg/mL |
| Cc1sc(NC(=O)c2ccc(C(F)(F)F)s2)nc1-c1ccccc1 [compound 8, N-(5-Methyl-4-phenylthiazol-2-yl)-5-(trifluoromethyl) thiophene-2-carboxamide] | > 40 | > 40 | > 40 | – |
| Cc1sc(NC(=O)c2ccc([N+](=O)[O-])s2)nc1-c1ccc(F)cc1 [compound 9, N-(4-(4-Fluorophenyl)-5-methylthiazol-2-yl)-5-nitrothiophene-2-carboxamide] | 0.6 (≈ 1.65 µM) | 0.6 (≈ 1.65 µM) | > 40 | – |
| CN(C)Cc1sc(NC(=O)c2ccc([N+](=O)[O-])s2)nc1-c1ccc(F)cc1 [compound 10, N-(5-((dimethylamino)methyl)-4-(4-fluorophenyl)thiazol-2-yl)-5-nitro thiophene-2-carboxamide] | 2.5 (≈ 6.15 µM) | 2.5 (≈ 6.15 µM) | > 40 | fold change of MIC in ∆tolC ([1]; compared to 9): four fold |
| O=C(Nc1nc(-c2ccc(F)c(F)c2)cs1)c1ccc([N+](=O)[O-])s1 [compound 11, N-(4-(3,4-Difluorophenyl)thiazol-2-yl)-5-nitrothiophene-2-carboxamide] | 0.15 (≈ 0.408 µM) | 0.3 (≈ 0.817 µM) | 0.6 (≈ 1.63 µM) | – |
| N#Cc1ccc(-c2csc(NC(=O)c3ccc([N+](=O)[O-])s3)n2)cc1 [compound 14, N-(4-(4-cyanophenyl)thiazol-2-yl)-5-nitrothiophene-2-carboxamide] | 20 (≈ 56.1 µM) | 20 (≈ 56.1 µM) | > 40 | fold loss in MIC against ∆tolC ([1]; compared to compound 12): > 100 fold; MIC WT [3]: >40 µg/mL; MIC [4]: > 40 µg/mL; MIC ([5]; Escherichia coli, read-out: MIC ∆nfsA + ∆nfsB): > 40 µg/mL; antibacterial activity in double knockout (in words) ([5]; ΔnfsA and ΔnfsB double knockout strain): inactive; MIC [6]: > 40 µg/mL; NfsA activity (rate of compound conversion) ([7]; 20 μM compound, 40 μM NADPH, 10 nM NfsA, slope of initial velocity): 0.20 µM/min; conversion by NfsA (in words) ([7]; biochemical assay): not converted; NfsB activity (rate of compound conversion) ([8]; 20 μM compound, 40 μM NADH, 70 nM NfsB, slope of initial velocity): 1.31 µM/min; conversion by NfsB (in words) ([8]; biochemical assay): not converted |
| O=C(Nc1nc(-c2ccc(OC(F)(F)F)cc2)cs1)c1ccc([N+](=O)[O-])s1 [compound 16, 5-Nitro-N-(4-(4-(trifluoromethoxy)phenyl)thiazol-2-yl)thiophene-2-carboxamide] | 0.3 (≈ 0.722 µM) | 1.25 (≈ 3.01 µM) | 5 (≈ 12 µM) | – |
| Cc1cc(F)ccc1-c1csc(NC(=O)c2ccc([N+](=O)[O-])s2)n1 [compound 18, N-(4-(4-fluoro-2-methylphenyl)thiazol-2-yl)-5-nitrothiophene-2-carboxamide] | 0.3 (≈ 0.826 µM) | 0.6 (≈ 1.65 µM) | 2.5 (≈ 6.88 µM) | – |
| COc1cc(-c2csc(NC(=O)c3ccc([N+](=O)[O-])s3)n2)ccc1F [compound 19, N-(4-(4-fluoro-3-methoxyphenyl)thiazol-2-yl)-5-nitrothiophene-2-carboxamide] | 0.6 (≈ 1.58 µM) | 0.3 (≈ 0.791 µM) | 1.25 (≈ 3.29 µM) | – |
| O=C(Nc1nc(-c2ccc(Cl)c(F)c2)cs1)c1ccc([N+](=O)[O-])s1 [compound 21, N-(4-(4-Chloro-3-fluorophenyl)thiazol-2-yl)-5-nitrothiophene-2-carboxamide] | 2.5 (≈ 6.51 µM) | 1.25 (≈ 3.26 µM) | – | MIC ([3]; BW25113, read-out: MIC WT): 1.25 µg/mL (≈ 3.26 µM) |
| CCOc1cc(-c2csc(NC(=O)c3ccc([N+](=O)[O-])s3)n2)ccc1Cl [compound 22, N-(4-(4-chloro-3-ethoxyphenyl)thiazol-2-yl)-5-nitrothiophene-2-carboxamide] | 0.6 (≈ 1.46 µM) | 1.25 (≈ 3.05 µM) | – | MIC ([3]; BW25113, read-out: MIC WT): 1.25 µg/mL (≈ 3.05 µM) |
| COc1cc(-c2csc(NC(=O)c3ccc([N+](=O)[O-])s3)n2)ccc1C(F)(F)F [compound 23, N-(4-(3-methoxy-4-(trifluoromethyl)phenyl)thiazol-2-yl)-5-nitrothiophene-2-carboxamide] | 1.25 (≈ 2.91 µM) | 2.5 (≈ 5.82 µM) | 2.5 (≈ 5.82 µM) | – |
| O=C(Nc1nc(-c2cc(F)cc(F)c2)cs1)c1ccc([N+](=O)[O-])s1 [compound 24, N-(4-(3,5-difluorophenyl)thiazol-2-yl)-5-nitrothiophene-2-carboxamide] | 0.3 (≈ 0.817 µM) | 0.3 (≈ 0.817 µM) | > 20 | – |
| N-(4-(3-Fluoro-4-methylphenyl)thiazol-2-yl)-5-nitrothiophene-2-carboxamide [compound 13] | – | – | – | MIC tolC [1]: 0.3 µg/mL; MIC acrB [2]: 0.3 µg/mL; MIC WT [3]: 1.25 µg/mL |
